Like-named read-outs stand apart in the source and are kept apart here.
Experiments:
Assay type in all cases: binding
[1] = molecular target: T1, STAT5B(N642H) (Homo sapiens, UniProt P51692, N642H); assay: biochemical; conditions: for percent of DMSO vehicle control at 10 µM / remaining activity at 10 µM: read-out: percent of DMSO vehicle control; for remaining activity at 10 µM: primary screen
T1 construct: made in house; host or cells: HEK293 (transient transfection), unpurified extract
T1 sequence (P51692 1-787 N642H): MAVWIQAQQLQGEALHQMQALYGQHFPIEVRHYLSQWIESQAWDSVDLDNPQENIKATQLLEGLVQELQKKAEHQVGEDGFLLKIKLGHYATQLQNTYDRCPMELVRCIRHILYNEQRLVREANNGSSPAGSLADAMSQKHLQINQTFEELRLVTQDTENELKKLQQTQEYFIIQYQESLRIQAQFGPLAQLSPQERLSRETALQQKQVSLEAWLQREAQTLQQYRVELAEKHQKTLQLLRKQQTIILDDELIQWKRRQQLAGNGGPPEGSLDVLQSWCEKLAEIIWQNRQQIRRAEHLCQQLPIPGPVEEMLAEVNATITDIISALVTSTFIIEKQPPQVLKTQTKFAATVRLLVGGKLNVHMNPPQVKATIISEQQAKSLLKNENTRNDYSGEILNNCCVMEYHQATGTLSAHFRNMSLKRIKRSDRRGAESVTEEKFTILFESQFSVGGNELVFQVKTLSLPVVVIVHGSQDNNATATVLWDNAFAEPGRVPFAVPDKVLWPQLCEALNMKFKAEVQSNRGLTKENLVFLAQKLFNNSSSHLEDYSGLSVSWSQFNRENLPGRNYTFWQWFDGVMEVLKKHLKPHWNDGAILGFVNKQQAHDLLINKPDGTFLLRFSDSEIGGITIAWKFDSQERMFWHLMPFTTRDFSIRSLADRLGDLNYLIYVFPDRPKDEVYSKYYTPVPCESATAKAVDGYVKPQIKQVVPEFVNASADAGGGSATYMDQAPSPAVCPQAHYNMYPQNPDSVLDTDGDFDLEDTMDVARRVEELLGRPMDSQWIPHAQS

[2] = molecular target: T2, CSK (Homo sapiens, UniProt P41240); assay: biochemical; conditions: for percent of DMSO vehicle control: primary screen, 10 μM
T2 construct: the DNA-tagged SH2 domain concentrations used in this study were <0.1 nM; made in house; host or cells: HEK293 (transient transfection; unpurified extract)
T2 sequence (P41240 82-171 limits assumed): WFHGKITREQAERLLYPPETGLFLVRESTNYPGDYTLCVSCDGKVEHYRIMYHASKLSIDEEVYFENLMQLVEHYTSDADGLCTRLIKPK

[3] = molecular target: T3, CBLB (Homo sapiens, UniProt Q13191); assay: biochemical; conditions: primary screen, 10 μM
T3 construct: the DNA-tagged SH2 domain concentrations used in this study were <0.1 nM; made in house; host or cells: HEK293 (transient transfection; unpurified extract)

[4] = molecular target: T4, PIK3R1(SH2dom.C-term.) (Homo sapiens, UniProt P27986); assay: biochemical; conditions: for remaining activity at 10 µM: read-out: percent of DMSO vehicle control; for Kd: dose-response, read-out: KD
T4 construct: SH2dom.C-term. denotes SH2 domain closest to C-terminus of protein; made in house; host or cells: HEK293 (transient transfection, unpurified extract)

[5] = molecular target: T5, STAP2 (Homo sapiens, UniProt Q9UGK3); assay: biochemical; conditions: for percent of DMSO vehicle control at 10 µM / remaining activity at 10 µM: read-out: percent of DMSO vehicle control; for remaining activity at 10 µM: primary screen
T5 construct: made in house; host or cells: HEK293 (transient transfection), unpurified extract
T5 sequence (Q9UGK3 1-403): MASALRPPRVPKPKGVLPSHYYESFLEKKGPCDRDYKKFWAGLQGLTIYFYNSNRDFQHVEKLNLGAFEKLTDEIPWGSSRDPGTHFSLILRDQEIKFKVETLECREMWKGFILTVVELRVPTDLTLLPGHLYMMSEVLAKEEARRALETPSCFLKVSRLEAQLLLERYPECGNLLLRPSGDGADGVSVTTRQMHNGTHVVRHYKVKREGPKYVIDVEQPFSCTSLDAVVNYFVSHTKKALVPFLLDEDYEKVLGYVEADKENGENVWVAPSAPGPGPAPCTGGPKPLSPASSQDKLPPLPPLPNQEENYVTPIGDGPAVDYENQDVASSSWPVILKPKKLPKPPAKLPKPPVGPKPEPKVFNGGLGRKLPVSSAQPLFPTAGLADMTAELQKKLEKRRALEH

[6] = molecular target: T6, PTPN11(SH2dom.N-term.) (Homo sapiens, UniProt Q06124); conditions: primary screen, 10 μM
T6 construct: SH2dom.N-term. denotes SH2 domain closest to N-terminus of protein; made in house; host or cells: HEK293 (transient transfection, unpurified extract)
T6 sequence (Q06124 6-102 limits assumed): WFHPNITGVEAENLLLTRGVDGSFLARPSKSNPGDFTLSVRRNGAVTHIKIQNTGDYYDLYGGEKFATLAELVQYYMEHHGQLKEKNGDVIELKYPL

[7] = molecular target: T7, STAT5A (Homo sapiens, UniProt P42229); assay: biochemical; conditions: for percent of DMSO vehicle control at 10 µM / remaining activity at 10 µM: read-out: percent of DMSO vehicle control; for remaining activity at 10 µM: primary screen
T7 construct: made in house; host or cells: HEK293 (transient transfection), unpurified extract
T7 sequence (P42229 1-794): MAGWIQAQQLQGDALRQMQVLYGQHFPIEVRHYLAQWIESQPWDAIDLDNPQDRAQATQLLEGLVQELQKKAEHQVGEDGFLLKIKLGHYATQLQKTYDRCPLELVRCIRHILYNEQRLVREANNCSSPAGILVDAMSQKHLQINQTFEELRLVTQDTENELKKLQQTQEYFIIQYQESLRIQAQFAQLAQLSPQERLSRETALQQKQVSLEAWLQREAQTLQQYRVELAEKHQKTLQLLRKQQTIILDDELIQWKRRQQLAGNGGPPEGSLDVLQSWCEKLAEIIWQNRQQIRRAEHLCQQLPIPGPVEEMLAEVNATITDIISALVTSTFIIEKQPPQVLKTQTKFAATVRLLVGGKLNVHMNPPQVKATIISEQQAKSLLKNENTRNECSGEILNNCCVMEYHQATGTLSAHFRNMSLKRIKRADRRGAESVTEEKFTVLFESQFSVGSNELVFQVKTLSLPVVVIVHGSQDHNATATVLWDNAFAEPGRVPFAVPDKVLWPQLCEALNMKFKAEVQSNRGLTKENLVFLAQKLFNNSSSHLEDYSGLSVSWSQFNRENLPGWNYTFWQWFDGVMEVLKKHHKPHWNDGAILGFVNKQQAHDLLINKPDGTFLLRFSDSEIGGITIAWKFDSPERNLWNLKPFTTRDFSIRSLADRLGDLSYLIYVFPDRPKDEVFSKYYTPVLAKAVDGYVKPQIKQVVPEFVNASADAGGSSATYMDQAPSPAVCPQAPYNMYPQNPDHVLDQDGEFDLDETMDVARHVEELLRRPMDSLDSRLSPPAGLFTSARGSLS

[8] = molecular target: T8, STAT3 (Homo sapiens, UniProt P40763); assay: biochemical; conditions: for percent of DMSO vehicle control at 10 µM / remaining activity at 10 µM: read-out: percent of DMSO vehicle control; for remaining activity at 10 µM: primary screen
T8 construct: made in house; host or cells: HEK293 (transient transfection), unpurified extract

[9] = molecular target: T9, STAT3(N567K)-nonphosphorylated (Homo sapiens, UniProt P40763, N567K); assay: biochemical; conditions: for percent of DMSO vehicle control at 10 µM / remaining activity at 10 µM: read-out: percent of DMSO vehicle control; for remaining activity at 10 µM: primary screen
T9 construct: made in house; host or cells: HEK293 (transient transfection), unpurified extract, dephosphorylated by endogenous phosphatases

**Q.** Which results are given for NC(=O)CC[C@H](NC(=O)[C@@H]1CC[C@@H]2CCN(C(=O)CCCCCC#Cc3cccc4c3CN(C3CCC(=O)NC3=O)C4=O)C[C@H](NC(=O)c3cc4cc(C(F)(F)P(=O)(O)O)ccc4[nH]3)C(=O)N21)C(=O)NC(c1ccccc1)c1ccccc1 (some centres unmarked) [SD-36]?
**A.** Kd ([1]; dose-response): 2400 ± 740 nM; percent of DMSO vehicle control at 10 µM [1]: 3.2 ± 0.8%; percent of DMSO vehicle control [2]: 97.3±14.8%; percent of DMSO vehicle control [3]: 60.9±5.8%; remaining activity at 10 µM [4]: 94.6 ± 6.5%; percent of DMSO vehicle control at 10 µM [5]: 36.1 ± 5.4%; percent of DMSO vehicle control [6]: 89.9±0.7%; Kd ([7]; dose-response): 1600 ± 670 nM; percent of DMSO vehicle control at 10 µM [7]: 3.4 ± 0.4%; Kd ([8]; dose-response): 21 nM; percent of DMSO vehicle control at 10 µM [8]: 0.1 ± 0.1%; Kd ([9]; dose-response): 30 ± 11 nM; percent of DMSO vehicle control at 10 µM [9]: 0.1%

**Q.** Which results are given for CC(=O)N1CC[C@H]2CC[C@@H](C(=O)N[C@@H](CCC(N)=O)C(=O)NC(c3ccccc3)c3ccccc3)N2C(=O)[C@@H](NC(=O)c2cc3cc(C(F)(F)P(=O)(O)O)ccc3[nH]2)C1 [SI-109]?
**A.** Kd [1]: 19000 ± 8500 nM; percent of DMSO vehicle control at 10 µM [1]: 123%; percent of DMSO vehicle control [2]: 121.2%; percent of DMSO vehicle control [3]: 128.3%; remaining activity at 10 µM [4]: 128%; percent of DMSO vehicle control at 10 µM [5]: 130%; percent of DMSO vehicle control [6]: 109.2%; Kd [7]: 7030 ± 2200 nM; percent of DMSO vehicle control at 10 µM [7]: 101%; Kd [8]: 15 nM; percent of DMSO vehicle control at 10 µM [8]: 0.4 ± 0.1%; Kd [9]: 12 ± 1.8 nM; percent of DMSO vehicle control at 10 µM [9]: 0.2%

**Q.** What does the source list for C/C(=C\C(=O)N[C@H](C(=O)N1CCC[C@H]1C(=O)N(c1ccccc1)c1ccc(I)cc1)C(C)(C)C)c1ccc(OP(=O)(O)O)cc1 [STAT6-IN-1]?
**A.** Kd ([1]; dose-response, read-out: KD): 5.6 ± 2.1 nM; remaining activity at 10 µM [1]: 0%; Kd ([2]; dose-response, read-out: KD): 3050 ± 490 nM; percent of DMSO vehicle control [2]: 26.3±0.8%; percent of DMSO vehicle control [3]: 36.0±0.8%; Kd [4]: 3400 ± 1100 nM; remaining activity at 10 µM ([4]; primary screen, 10 μM): 12.3 ± 0.1%; Kd ([5]; dose-response, read-out: KD): 16300 nM; remaining activity at 10 µM [5]: 58.4 ± 51.4%; percent of DMSO vehicle control [6]: 76.7±1.3%; Kd ([7]; dose-response, read-out: KD): 9.1 ± 4.3 nM; remaining activity at 10 µM [7]: 0%; Kd ([8]; dose-response, read-out: KD): 180 ± 0.01 nM; remaining activity at 10 µM [8]: 0%; Kd ([9]; dose-response, read-out: KD): 190 ± 107 nM; remaining activity at 10 µM [9]: 0%

**Q.** How did the Kd ([1]; dose-response, read-out: KD) turn out when CC(C)(C)[C@H](NC(=O)/C=C/c1ccc(OP(=O)(O)O)cc1)C(=O)N1CCC[C@H]1C(=O)N(c1ccccc1)c1ccc(I)cc1 [STAT6-IN-3] was run?
**A.** Its Kd is 36 ± 27 nM.

**Q.** What about the remaining activity at 10 µM [1] of the same compound?
**A.** The remaining activity at 10 µM was 1.3 ± 7.7%.

**Q.** And the “percent of DMSO vehicle control” value [2]?
**A.** The value was 65.2±5.7%.

**Q.** What about the “percent of DMSO vehicle control” value [3] of the same compound?
**A.** Its value is 69.0±7.6%.

**Q.** And the Kd [4]?
**A.** The Kd was 3000 ± 730 nM.

**Q.** And the remaining activity at 10 µM ([4]; primary screen, 10 μM)?
**A.** The remaining activity at 10 µM was 32.6 ± 4.4%.

**Q.** What about the remaining activity at 10 µM [5] of the same compound?
**A.** Its remaining activity at 10 µM is 56.9 ± 15.1%.

**Q.** What about the “percent of DMSO vehicle control” value [6] of the same compound?
**A.** The value was 73.9±34.6%.

**Q.** And the Kd ([7]; dose-response, read-out: KD)?
**A.** Its Kd is 46 ± 19 nM.

**Q.** What about the remaining activity at 10 µM [7] of the same compound?
**A.** The remaining activity at 10 µM was 0%.

**Q.** And the Kd ([8]; dose-response, read-out: KD)?
**A.** Its Kd is 370 ± 162 nM.

**Q.** And the remaining activity at 10 µM [8]?
**A.** Its remaining activity at 10 µM is 0.7 ± 0.2%.

**Q.** What about the Kd ([9]; dose-response, read-out: KD) of the same compound?
**A.** Its Kd is 500 ± 200 nM.

**Q.** What about the remaining activity at 10 µM [9] of the same compound?
**A.** Its remaining activity at 10 µM is 0.2 ± 0.3%.

**Q.** O=C(COc1ccc2cc(C(=O)Nc3ccccc3)ccc2c1)NCc1ccc(OP(=O)(O)O)c(OP(=O)(O)O)c1 [Stafib-1] was tested. Which remaining activity at 10 µM [1] did it give?
**A.** The remaining activity at 10 µM was 12.5 ± 13.5%.

**Q.** And the “percent of DMSO vehicle control” value [2]?
**A.** The value was 111.7±5.5%.

**Q.** And the “percent of DMSO vehicle control” value [3]?
**A.** The value was 78.9±15.9%.

**Q.** And the remaining activity at 10 µM ([4]; primary screen, 10 μM)?
**A.** The remaining activity at 10 µM was 85.3 ± 16.8%.

**Q.** What about the remaining activity at 10 µM [5] of the same compound?
**A.** The remaining activity at 10 µM was 78.7 ± 36.1%.

**Q.** And the “percent of DMSO vehicle control” value [6]?
**A.** Its value is 79.2±4.6%.

**Q.** What about the remaining activity at 10 µM [7] of the same compound?
**A.** Its remaining activity at 10 µM is 22 ± 26.6%.

**Q.** And the remaining activity at 10 µM [8]?
**A.** The remaining activity at 10 µM was 66.9 ± 10%.

**Q.** What about the remaining activity at 10 µM [9] of the same compound?
**A.** The remaining activity at 10 µM was 97.5 ± 16.8%.
